SMILES | melting point
NC(=O)[C@H](CC1CCC(F)(F)CC1)C[C@H](O)[C@H](Cc1ccccc1)NC(=O)c1cnc2ccccc2n1 [Example 133, Quinoxaline-2-carboxylic acid [1(S)-benzyl-4(R)-carbamoyl-5-(4,4-difluoro-cyclohexyl)-2(S)-hydroxy-pentyl]-amide] | 174 to 176 °C
CC(C)C[C@H](C[C@H](O)C(Cc1ccccc1)NC(=O)c1cnc2ccccc2c1)C(=O)NCCO (stereo partly drawn) [Example 33, Quinoline-3-carboxylic acid [1-benzyl-2(S)-hydroxy-4(R)-(2-hydroxy-ethylcarbamoyl)-6-methyl-heptyl]-amide] | 158 to 162 °C
CNC(=O)[C@H](CC1CCCCC1)C[C@H](O)[C@H](CC1CCCCC1)NC(=O)c1cc2ccccc2cn1 [Example 59, Isoquinoline-3-carboxylic acid (5-cyclohexyl-1(S)-cyclohexylmethyl-2(S)-hydroxy-4(R)-methylcarbamoyl-pentyl)-amide] | 205 to 207 °C
CC(C)(F)CC[C@H](C[C@H](O)[C@H](Cc1ccccc1)NC(=O)c1cnc2ccccc2n1)C(=O)NCCc1ccccn1 [Example 205, Quinoxaline-2-carboxylic acid [1(S)-benzyl-7-fluoro-2(S)-hydroxy-7-methyl-4(R)-(2-pyridin-2-yl-ethylcarbamoyl)-octyl]-amide] | 155 to 156 °C
CC(C)C[C@H](C[C@H](O)[C@H](CC1CCCCC1)NC(=O)c1cnc2ccccc2c1)C(N)=O [Example 20, Quinoline-3-carboxylic acid (4(R)-carbamoyl-1(S)-cyclohexylmethyl-2(S)-hydroxy-6-methyl-heptyl)-amide] | 186 to 188 °C
CC(C)CC[C@H](C[C@H](O)[C@H](Cc1ccccc1F)NC(=O)c1cnc2ccccc2n1)C(N)=O [Example 175, Quinoxaline-2-carboxylic acid [4(R)-carbamoyl-1(S)-(2-fluoro-benzyl)-2(S)-hydroxy-7-methyl-octyl]-amide] | 213 to 215 °C
NC(=O)[C@@H](C[C@H](O)[C@H](Cc1ccccc1)NC(=O)c1cnc2ccccc2n1)C1Cc2ccccc2C1 [Example 192, Quinoxaline-2-carboxylic acid (1(S)-benzyl-4(S)-carbamoyl-2(S)-hydroxy-4-indan-2-yl-butyl)-amide] | 190 to 191 °C
CNC(=O)[C@H](CC(C)C)C[C@H](O)[C@H](CC(C)C)NC(=O)c1cnc2ccccc2c1 [Example 10, Quinoline-3-carboxylic acid (2(S)-hydroxy-1(S)-isobutyl-6-methyl-4(R)-methylcarbamoyl-heptyl)-amide] | 155 to 157 °C
CC(C)(F)CC[C@H](C[C@H](O)[C@H](Cc1ccccc1)NC(=O)c1cnc2ccccc2n1)C(=O)NCc1ccco1 [Example 234, Quinoxaline-2-carboxylic acid {1(S)-benzyl-7-fluoro-4(R)-[(furan-2-ylmethyl)-carbamoyl]-2(S)-hydroxy-7-methyl-octyl}-amide] | 155.5 to 156.5 °C
CC(C)(F)CC[C@H](C[C@H](O)[C@H](Cc1ccccc1)NC(=O)c1cnc2ccccc2n1)C(=O)NCc1ccncc1 [Example 217, Quinoxaline-2-carboxylic acid {1(S)-benzyl-7-fluoro-2(S)-hydroxy-7-methyl-4(R)-[(pyridin-4-ylmethyl)-carbamoyl]-octyl}-amide] | 100 to 104 °C
CNC(=O)[C@H](CC1CCCCC1)C[C@H](O)[C@H](CC1CCCCC1)NC(=O)c1cnc2ccccc2c1 [Example 21, Quinoline-3-carboxylic acid (5-cyclohexyl-1(S)-cyclohexylmethyl-2(S)-hydroxy-4(R)-methylcarbamoyl-pentyl)-amide] | 170.5 to 172.5 °C
NC(=O)[C@@H](C[C@H](O)[C@H](Cc1ccccc1)NC(=O)c1cnc2ccccc2n1)C1CCCCC1 [Example 169, Quinoxaline-2-carboxylic acid (1(S)-benzyl-4-carbamoyl-4(S)-cyclohexyl-2(S)-hydroxy-butyl)-amide] | 178 to 180 °C
CC(C)(F)CC[C@H](C[C@H](O)[C@H](Cc1ccccc1)NC(=O)c1cnc2ccccc2n1)C(=O)NCc1cccnc1 [Example 199, Quinoxaline-2-carboxylic acid {1(S)-benzyl-7-fluoro-2(S)-hydroxy-7-methyl-4(R)-[(pyridin-3-ylmethyl)-carbamoyl]-octyl}-amide] | 188 to 191 °C
CC(C)CCNC(=O)[C@H](CC(C)C)C[C@H](O)[C@H](Cc1ccccc1)NC(=O)c1cnc2ccccc2c1 [Example 48, Quinoline-3-carboxylic acid [1(S)-benzyl-2(S)-hydroxy-6-methyl-4(R)-(3-methyl-butylcarbamoyl)-heptyl]-amide] | 153 to 154 °C
CC(C)(F)CC[C@H](C[C@H](O)[C@H](Cc1ccccc1)NC(=O)c1cnc2ccccc2n1)C(=O)N1CCC[C@H]1CO [Example 239, Quinoxaline-2-carboxylic acid [1(S)-benzyl-7-fluoro-2(S)-hydroxy-4(R)-(2(S)-hydroxymethyl-pyrrolidine-1-carbonyl)-7-methyl-octyl]-amide] | 217 to 219 °C

Further lines, results first:

melting point | SMILES
207.5 to 208.5 °C | NC(=O)[C@@H](C[C@H](O)[C@H](Cc1ccccc1)NC(=O)c1cnc2ccccc2n1)C1(O)CCC(F)(F)CC1 [Example 306, Quinoxaline-2-carboxylic acid [1(S)-benzyl-4(S)-carbamoyl-4-(4,4-difluoro-1-hydroxy-cyclohexyl)-2(S)-hydroxy-butyl]-amide]
199 to 201 °C | NC(=O)[C@@H](Cc1ccc(Cl)c(Cl)c1)C[C@H](O)[C@H](Cc1ccccc1)NC(=O)c1cnc2ccccc2n1 [Example 279, Quinoxaline-2-carboxylic acid [1(S)-benzyl-4(S)-carbamoyl-5-(3,4-dichloro-phenyl)-2(S)-hydroxy-pentyl]-amide]
225 to 227 °C | CC(C)(F)CC[C@H](C[C@H](O)[C@H](Cc1cccc(F)c1)NC(=O)c1cnc2ccccc2n1)C(N)=O [Example 245, Quinoxaline-2-carboxylic acid [4(R)-carbamoyl-7-fluoro-1(S)-(3-fluoro-benzyl)-2(S)-hydroxy-7-methyl-octyl]-amide]
176 to 179 °C | NC(=O)[C@H](Cc1cccc(F)c1)C[C@H](O)[C@H](Cc1ccccc1)NC(=O)c1cnc2ccccc2n1 [Example 292, Quinoxaline-2-carboxylic acid [1(S)-benzyl-4(R)-carbamoyl-5-(3-fluoro-phenyl)-2(S)-hydroxy-pentyl]-amide]
195 to 198 °C | CC1CC([C@H](C[C@H](O)[C@H](Cc2ccccc2)NC(=O)c2cnc3ccccc3n2)C(N)=O)CC(C)O1 (stereo partly drawn) [Example 244, Quinoxaline-2-carboxylic acid [1(S)-benzyl-4(S)-carbamoyl-4-(2,6-dimethyl-tetrahydro-pyran-4-yl)-2(S)-hydroxy-butyl]-amide]
178 to 179 °C | Cc1cccc(C[C@H](C[C@H](O)[C@H](Cc2ccccc2)NC(=O)c2cnc3ccccc3n2)C(N)=O)c1 [Example 293, Quinoxaline-2-carboxylic acid (1(S)-benzyl-4(R)-carbamoyl-2(S)-hydroxy-5-m-tolyl-pentyl)-amide]
210 to 211 °C | NC(=O)[C@@H](C[C@H](O)[C@H](Cc1ccccc1)NC(=O)c1cnc2ccccc2n1)C1(O)CCCCC1 [Example 260, Quinoxaline-2-carboxylic acid [1(S)-benzyl-4(S)-carbamoyl-2(S)-hydroxy-4-(1-hydroxy-cyclohexyl)-butyl]-amide]
227 to 228 °C | CCCC1CCC(O)([C@H](C[C@H](O)[C@H](Cc2ccccc2)NC(=O)c2cnc3ccccc3n2)C(N)=O)CC1 (stereo partly drawn) [Example 300, Quinoxaline-2-carboxylic acid [1(S)-benzyl-4(S)-carbamoyl-2(S)-hydroxy-4-(1-hydroxy-4-propyl-cyclohexyl)-butyl]-amide]
168 to 171 °C | Cc1ccccc1C[C@H](C[C@H](O)[C@H](Cc1ccccc1)NC(=O)c1cnc2ccccc2n1)C(N)=O [Example 275, Quinoxaline-2-carboxylic acid (1(S)-benzyl-4(R)-carbamoyl-2(S)-hydroxy-5-o-tolyl-pentyl)-amide]
210 to 211 °C | CC1(C)CCC(O)([C@H](C[C@H](O)[C@H](Cc2ccccc2)NC(=O)c2cnc3ccccc3n2)C(N)=O)CC1 [Example 304, Quinoxaline-2-carboxylic acid [1(S)-benzyl-4(S)-carbamoyl-2(S)-hydroxy-4-(1-hydroxy-4,4-dimethyl-cyclohexyl)-butyl]-amide]
231 °C | NC(=O)[C@@H](C[C@H](O)[C@H](Cc1ccccc1)NC(=O)c1cnc2ccccc2c1)C1CCCCC1 [Example 261, Quinoline-3-carboxylic acid (1(S)-benzyl-4(S)-carbamoyl-4-cyclohexyl-2(S)-hydroxy-butyl)-amide]
146 to 148 °C | CC(C)CNC(=O)CC[C@H](O)[C@H](Cc1ccccc1)NC(=O)c1cnc2ccccc2n1 [Example 294, Quinoxaline-2-carboxylic acid (1(S)-benzyl-2(S)-hydroxy-4-isobutylcarbamoyl-butyl)-amide]
114 to 116 °C | CC1CCC(O)([C@H](C[C@H](O)[C@H](Cc2ccccc2)NC(=O)c2cnc3ccccc3n2)C(=O)NO)CC1 (stereo partly drawn) [Example 283, Quinoxaline-2-carboxylic acid [1(S)-benzyl-2(S)-hydroxy-4(S)-hydroxycarbamoyl-4-(1-hydroxy-4-methyl-cyclohexyl)-butyl]-amide]
110 to 112 °C | O=C(N[C@@H](Cc1ccccc1)[C@@H](O)C[C@H](C(=O)NO)C1(O)CCCC1)c1cnc2ccccc2n1 [Example 281, Quinoxaline-2-carboxylic acid [1(S)-benzyl-2(S)-hydroxy-4(S)-hydroxycarbamoyl-4-(1-hydroxy-cyclopentyl)-butyl]-amide]
147 to 148 °C | COc1cccc(C[C@H](C[C@H](O)[C@H](Cc2ccccc2)NC(=O)c2cnc3ccccc3n2)C(N)=O)c1 [Example 299, Quinoxaline-2-carboxylic acid [1(S)-benzyl-4(R)-carbamoyl-2(S)-hydroxy-5-(3-methoxy-phenyl)-pentyl]-amide]
